# Source: patent US9802937B2, “Substituted pyrazolo{4,3-D}pyrimidines as kinase inhibitors” (ORIGENIS GMBH, priority 2011, dated 2017)
# How the values were obtained:
# SYK kinase = target: T1, SYK kinase (Homo sapiens, UniProt P43405); assay: SYK Assay (OMNIA KINASE ASSAY, SOX peptide fluorescence); assay type: biochemical; details: apparent Ki calculated from the IC50 using the Cheng-Prusoff equation; 1 mM ATP, 30° C.; read-out: SYK Activities: Ki
# T1 construct: purchased Invitrogen, Carlsbad
# In short: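 Apparent Ki values are derived by Cheng-Prusoff from IC50s of sigmoidal fits of reaction rate against compound concentration. Rates come from chelation-enhanced SOX fluorescence (λex 360/λem 485 nm, read every 30 s over 30 min) as the kinase phosphorylates 10 µM Omnia Tyr 7 peptide at 30 °C, with 1 mM ATP and 0.2 mM DTT.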
# LRRK2 = LRRK2 (Homo sapiens, UniProt Q5S007); assay: LRRK2-LRRK2 G2019S-Assay (LanthaScreen Eu Kinase Binding Assay); details: 5 nM LRRK2 or their mutants, 10 nM tracer 236, RT 1 h; read-out: LRRK2 Activities: IC50
# Sequence of LRRK2 (Q5S007 970-2527 limits assumed): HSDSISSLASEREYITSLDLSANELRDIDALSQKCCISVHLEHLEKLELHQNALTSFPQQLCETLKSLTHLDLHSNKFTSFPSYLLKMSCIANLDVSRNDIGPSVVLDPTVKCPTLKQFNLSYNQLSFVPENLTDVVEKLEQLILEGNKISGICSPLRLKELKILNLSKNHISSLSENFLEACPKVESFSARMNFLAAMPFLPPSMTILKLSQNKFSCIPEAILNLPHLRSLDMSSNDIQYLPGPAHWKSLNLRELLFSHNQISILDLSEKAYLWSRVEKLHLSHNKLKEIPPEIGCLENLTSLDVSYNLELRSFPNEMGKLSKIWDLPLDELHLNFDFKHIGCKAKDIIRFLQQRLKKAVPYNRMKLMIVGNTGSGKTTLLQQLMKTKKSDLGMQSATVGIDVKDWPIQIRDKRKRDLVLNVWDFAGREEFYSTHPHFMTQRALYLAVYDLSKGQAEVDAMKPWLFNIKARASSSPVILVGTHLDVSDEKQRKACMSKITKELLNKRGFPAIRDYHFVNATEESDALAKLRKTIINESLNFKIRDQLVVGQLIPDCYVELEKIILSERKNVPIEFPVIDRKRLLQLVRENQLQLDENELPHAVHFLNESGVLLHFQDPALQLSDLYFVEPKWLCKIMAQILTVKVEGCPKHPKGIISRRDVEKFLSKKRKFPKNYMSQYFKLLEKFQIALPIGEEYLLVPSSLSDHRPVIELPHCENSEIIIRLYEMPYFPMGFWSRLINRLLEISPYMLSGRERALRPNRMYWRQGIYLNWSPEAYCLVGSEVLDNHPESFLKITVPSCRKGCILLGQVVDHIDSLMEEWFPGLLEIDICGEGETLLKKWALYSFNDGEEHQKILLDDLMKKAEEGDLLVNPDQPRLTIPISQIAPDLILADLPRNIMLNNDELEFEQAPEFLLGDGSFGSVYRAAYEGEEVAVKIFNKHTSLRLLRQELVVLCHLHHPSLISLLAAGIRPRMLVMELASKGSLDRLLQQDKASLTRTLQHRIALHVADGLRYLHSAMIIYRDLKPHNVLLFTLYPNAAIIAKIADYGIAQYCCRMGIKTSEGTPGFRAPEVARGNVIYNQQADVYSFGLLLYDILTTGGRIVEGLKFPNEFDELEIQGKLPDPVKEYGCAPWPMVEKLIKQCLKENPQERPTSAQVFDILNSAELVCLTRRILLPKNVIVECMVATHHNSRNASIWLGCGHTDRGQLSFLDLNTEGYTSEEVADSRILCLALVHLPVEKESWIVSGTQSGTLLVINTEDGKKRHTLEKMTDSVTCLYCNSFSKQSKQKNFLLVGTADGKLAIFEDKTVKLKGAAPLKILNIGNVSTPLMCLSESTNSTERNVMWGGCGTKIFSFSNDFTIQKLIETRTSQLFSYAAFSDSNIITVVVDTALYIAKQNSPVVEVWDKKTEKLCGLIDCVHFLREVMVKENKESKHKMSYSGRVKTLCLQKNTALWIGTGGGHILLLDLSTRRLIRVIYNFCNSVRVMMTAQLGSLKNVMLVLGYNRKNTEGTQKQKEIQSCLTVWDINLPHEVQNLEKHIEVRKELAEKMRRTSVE
# Description: In the assay LanthaScreen™ Eu Kinase Binding Assay by Invitrogen Corporation (Carlsbad) the effect of invention of a compound on the phosphorylation is determined by measurement of fluorescence intensity emission ratio based on the binding and displacement of a proprietary, Alexa Fluor® 647-labeled, ATP-competitive kinase inhibitor scaffold (kinase tracer) to the kinase of interest. Binding of the tracer to the kinase is detected using a europium-labeled anti-tag antibody, which binds to the kinase of interest. Simultaneous binding of both the tracer and antibody to the kinase results in a high degree of FRET (fluorescence resonance energy transfer) from the europium (Eu) donor fluorophore to the Alexa Fluor® 647 acceptor fluorophore on the kinase tracer. Binding of an inhibitor to the kinase competes for binding with the tracer, resulting in a loss of FRET. The fluorescence intensity ratio is directly proportional to the amount of peptide phosphorylation.
# To the wells of an 384 well small volume plate (Greiner, Frickenhausen) are added (i) the compound under test in 5% DMSO/distilled water (5 μl), (ii) 5 μl of the kinase antibody mixture resulting in a final concentration 5 nM LRRK2 or their mutants, 2 nM EU-Anti-GST antibody in 1× kinase buffer A. The reaction was started with addition of (iii) 5 μl resulting in a final concentration of 10 nM tracer 236. The assay plate was incubated at RT for 1 h and fluorescence intensitiy readings were collected using a TECAN M1000 at two wavelengthes of λex 340/λem 615 nm and λex 340/λm 665 nm with a delay time of 100 μs and an integration time of 200 μs after 60 minutes. The emission ratio was calculated by division of the acceptor/tracer emission ([…]) by the antibody/donor emission ([…]). The inhibitor concentration was plotted versus the emission ratio to determine the IC50 using XLFit 5.0 (IDBS, Guildford) to fit to a sigmoidal dose response curve with a variable slope.
smiles,measurement,setting,value
"c1ccc(-c2nc(Nc3ccc4cn[nH]c4c3)c3[nH]ncc3n2)cc1 [Example #36, N-(1H-indazol-6-yl)-5-phenyl-1H-pyrazolo[4,3-d]pyrimidin-7-amine]",Ki,SYK kinase,< 10 nM
same,IC50,LRRK2,< 10 nM
"O=C1COc2ccc(Nc3nc(-c4ccccc4)nc4cn[nH]c34)cc2N1 [Example #37, 6-((5-phenyl-1H-pyrazolo[4,3-d]pyrimidin-7-yl)amino)-2H-benzo[b][1,4]oxazin-3(4H)-one]",Ki,SYK kinase,10 to 100 nM
same,IC50,LRRK2,10 to 100 nM
"COc1ccc(-c2nc(Nc3ccc4[nH]ncc4c3)c3[nH]ncc3n2)cc1OC [Example #40, 5-(3,4-dimethoxyphenyl)-N-(1H-indazol-5-yl)-1H-pyrazolo[4,3-d]pyrimidin-7-amine]",Ki,SYK kinase,10 to 100 nM
same,IC50,LRRK2,100 to 1000 nM
"O=C1COc2ccc(Nc3nc(-c4ccc(N5CCCC5)nc4)nc4cn[nH]c34)cc2N1 [Example #47, 6-((5-(6-(pyrrolidin-1-yl)pyridin-3-yl)-1H-pyrazolo[4,3-d]pyrimidin-7-yl)amino)-2H-benzo[b][1,4]oxazin-3(4H)-one]",Ki,SYK kinase,10 to 100 nM
same,IC50,LRRK2,100 to 1000 nM
"c1cc(Nc2nc(-c3ccc(N4CCCC4)nc3)nc3cn[nH]c23)n[nH]1 [Example #48, N-(1H-pyrazol-3-yl)-5-(6-(pyrrolidin-1-yl)pyridin-3-yl)-1H-pyrazolo[4,3-d]pyrimidin-7-amine]",Ki,SYK kinase,100 to 1000 nM
same,IC50,LRRK2,100 to 1000 nM
"CN1CCC(c2nc(Nc3ccc4[nH]ncc4c3)c3[nH]ncc3n2)CC1 [Example #50, N-(1H-indazol-5-yl)-5-(1-methylpiperidin-4-yl)-1H-pyrazolo[4,3-d]pyrimidin-7-amine]",Ki,SYK kinase,10 to 100 nM
same,IC50,LRRK2,100 to 1000 nM
"COc1ccc(Nc2nc(C3CCN(C)CC3)nc3cn[nH]c23)cc1OC [Example #51, N-(3,4-dimethoxyphenyl)-5-(1-methylpiperidin-4-yl)-1H-pyrazolo[4,3-d]pyrimidin-7-amine]",Ki,SYK kinase,10 to 100 nM
same,IC50,LRRK2,100 to 1000 nM
"COc1ccc(-c2nc(Nc3ccc(N4CCOCC4)cc3)c3[nH]ncc3n2)cc1 [Example #59, 5-(4-methoxyphenyl)-N-(4-morpholinophenyl)-1H-pyrazolo[4,3-d]pyrimidin-7-amine]",Ki,SYK kinase,< 10 nM
same,IC50,LRRK2,10 to 100 nM
"COc1cccc(-c2nc(Nc3ccc(OC)c(OC)c3)c3[nH]ncc3n2)c1 [Example #60, N-(3,4-dimethoxyphenyl)-5-(3-methoxyphenyl)-1H-pyrazolo[4,3-d]pyrimidin-7-amine]",Ki,SYK kinase,< 10 nM
same,IC50,LRRK2,100 to 1000 nM
"COc1cccc(-c2nc(Nc3ccc(N4CCOCC4)cc3)c3[nH]ncc3n2)c1 [Example #61, 5-(3-methoxyphenyl)-N-(4-morpholinophenyl)-1H-pyrazolo[4,3-d]pyrimidin-7-amine]",Ki,SYK kinase,< 10 nM
same,IC50,LRRK2,100 to 1000 nM
"COc1cccc(-c2nc(Nc3ccc(N(C)C)cc3)c3[nH]ncc3n2)c1 [Example #63, N1-(5-(3-methoxyphenyl)-1H-pyrazolo[4,3-d]pyrimidin-7-yl)-N4,N4-dimethylbenzene-1,4-diamine]",Ki,SYK kinase,< 10 nM
same,IC50,LRRK2,100 to 1000 nM
"c1ccc(-c2nc(Nc3ccc4c(c3)NCCO4)c3[nH]ncc3n2)cc1 [Example #64, N-(5-phenyl-1H-pyrazolo[4,3-d]pyrimidin-7-yl)-3,4-dihydro-2H-benzo[b][1,4]oxazin-6-amine]",Ki,SYK kinase,< 10 nM
same,IC50,LRRK2,10 to 100 nM
"Oc1cccc(Nc2nc(-c3ccccc3)nc3cn[nH]c23)c1 [Example #65, 3-((5-phenyl-1H-pyrazolo[4,3-d]pyrimidin-7-yl)amino)phenol]",Ki,SYK kinase,10 to 100 nM
same,IC50,LRRK2,100 to 1000 nM
"COc1ccc(-c2nc(Nc3ccc(N4CCN(C)CC4)cc3)c3[nH]ncc3n2)cc1 [Example #66, 5-(4-methoxyphenyl)-N-(4-(4-methylpiperazin-1-yl)phenyl)-1H-pyrazolo[4,3-d]pyrimidin-7-amine]",Ki,SYK kinase,< 10 nM
same,IC50,LRRK2,100 to 1000 nM
"COc1cccc(-c2nc(Nc3ccc4cn[nH]c4c3)c3[nH]ncc3n2)c1 [Example #67, N-(1H-indazol-6-yl)-5-(3-methoxyphenyl)-1H-pyrazolo[4,3-d]pyrimidin-7-amine]",Ki,SYK kinase,< 10 nM
same,IC50,LRRK2,100 to 1000 nM
"c1csc(-c2nc(Nc3ccc(N4CCOCC4)cc3)c3[nH]ncc3n2)c1 [Example #69, N-(4-morpholinophenyl)-5-(thiophen-2-yl)-1H-pyrazolo[4,3-d]pyrimidin-7-amine]",Ki,SYK kinase,< 10 nM
same,IC50,LRRK2,10 to 100 nM
"CN(C)c1ccc(Nc2nc(-c3cccs3)nc3cn[nH]c23)cc1 [Example #71, N1,N1-dimethyl-N4-(5-(thiophen-2-yl)-1H-pyrazolo[4,3-d]pyrimidin-7-yl)benzene-1,4-diamine]",Ki,SYK kinase,< 10 nM
same,IC50,LRRK2,10 to 100 nM
"COc1ccc(Nc2nc(-c3ccsc3)nc3cn[nH]c23)cc1OC [Example #72, N-(3,4-dimethoxyphenyl)-5-(thiophen-3-yl)-1H-pyrazolo[4,3-d]pyrimidin-7-amine]",Ki,SYK kinase,< 10 nM
same,IC50,LRRK2,10 to 100 nM
"c1cc(-c2nc(Nc3ccc(N4CCOCC4)cc3)c3[nH]ncc3n2)cs1 [Example #73, N-(4-morpholinophenyl)-5-(thiophen-3-yl)-1H-pyrazolo[4,3-d]pyrimidin-7-amine]",Ki,SYK kinase,< 10 nM
same,IC50,LRRK2,10 to 100 nM
"CN(C)c1ccc(Nc2nc(-c3ccsc3)nc3cn[nH]c23)cc1 [Example #75, N1,N1-dimethyl-N4-(5-(thiophen-3-yl)-1H-pyrazolo[4,3-d]pyrimidin-7-yl)benzene-1,4-diamine]",Ki,SYK kinase,< 10 nM
same,IC50,LRRK2,10 to 100 nM
"c1cc(-c2nc(Nc3ccc4cn[nH]c4c3)c3[nH]ncc3n2)cs1 [Example #76, N-(1H-indazol-6-yl)-5-(thiophen-3-yl)-1H-pyrazolo[4,3-d]pyrimidin-7-amine]",Ki,SYK kinase,< 10 nM
same,IC50,LRRK2,10 to 100 nM
"c1cc(-c2nc(Nc3cc(C4CC4)[nH]n3)c3[nH]ncc3n2)cs1 [Example #77, N-(5-cyclopropyl-1H-pyrazol-3-yl)-5-(thiophen-3-yl)-1H-pyrazolo[4,3-d]pyrimidin-7-amine]",Ki,SYK kinase,10 to 100 nM
same,IC50,LRRK2,10 to 100 nM
"COc1ccc(-c2nc(Nc3ccc(N(C)C)cc3)c3[nH]ncc3n2)cc1 [Example #78, N1-(5-(4-methoxyphenyl)-1H-pyrazolo[4,3-d]pyrimidin-7-yl)-N4,N4-dimethylbenzene-1,4-diamine]",Ki,SYK kinase,< 10 nM
same,IC50,LRRK2,100 to 1000 nM
"COc1ccc(-c2nc(Nc3ccc4cn[nH]c4c3)c3[nH]ncc3n2)cc1 [Example #79, N-(1H-indazol-6-yl)-5-(4-methoxyphenyl)-1H-pyrazolo[4,3-d]pyrimidin-7-amine]",Ki,SYK kinase,< 10 nM
same,IC50,LRRK2,10 to 100 nM
"COc1ccc(-c2nc(Nc3cccc(O)c3)c3[nH]ncc3n2)cc1 [Example #80, 3-((5-(4-methoxyphenyl)-1H-pyrazolo[4,3-d]pyrimidin-7-yl)amino)phenol]",Ki,SYK kinase,10 to 100 nM
same,IC50,LRRK2,100 to 1000 nM
"COc1cccc(-c2nc(Nc3cccc(O)c3)c3[nH]ncc3n2)c1 [Example #81, 3-((5-(3-methoxyphenyl)-1H-pyrazolo[4,3-d]pyrimidin-7-yl)amino)phenol]",Ki,SYK kinase,10 to 100 nM
same,IC50,LRRK2,100 to 1000 nM
"c1csc(-c2nc(Nc3ccc4cn[nH]c4c3)c3[nH]ncc3n2)c1 [Example #82, N-(1H-indazol-6-yl)-5-(thiophen-2-yl)-1H-pyrazolo[4,3-d]pyrimidin-7-amine]",Ki,SYK kinase,< 10 nM
same,IC50,LRRK2,< 10 nM
"c1cc(-c2nc(Nc3ccc4c(c3)NCCO4)c3[nH]ncc3n2)cs1 [Example #84, N-(5-(thiophen-3-yl)-1H-pyrazolo[4,3-d]pyrimidin-7-yl)-3,4-dihydro-2H-benzo[b][1,4]oxazin-6-amine]",Ki,SYK kinase,< 10 nM
same,IC50,LRRK2,10 to 100 nM
"Oc1cccc(Nc2nc(-c3ccsc3)nc3cn[nH]c23)c1 [Example #85, 3-((5-(thiophen-3-yl)-1H-pyrazolo[4,3-d]pyrimidin-7-yl)amino)phenol]",Ki,SYK kinase,10 to 100 nM
same,IC50,LRRK2,100 to 1000 nM
"COc1ccc(-c2nc(Nc3cc(C4CC4)[nH]n3)c3[nH]ncc3n2)cc1 [Example #86, N-(5-cyclopropyl-1H-pyrazol-3-yl)-5-(4-methoxyphenyl)-1H-pyrazolo[4,3-d]pyrimidin-7-amine]",Ki,SYK kinase,10 to 100 nM
same,IC50,LRRK2,100 to 1000 nM
"COc1ccc(-c2nc(Nc3ccc4c(c3)NCCO4)c3[nH]ncc3n2)cc1 [Example #87, N-(5-(4-methoxyphenyl)-1H-pyrazolo[4,3-d]pyrimidin-7-yl)-3,4-dihydro-2H-benzo[b][1,4]oxazin-6-amine]",Ki,SYK kinase,< 10 nM
same,IC50,LRRK2,10 to 100 nM
"COc1cccc(-c2nc(Nc3cc(C4CC4)[nH]n3)c3[nH]ncc3n2)c1 [Example #88, N-(5-cyclopropyl-1H-pyrazol-3-yl)-5-(3-methoxyphenyl)-1H-pyrazolo[4,3-d]pyrimidin-7-amine]",Ki,SYK kinase,100 to 1000 nM
same,IC50,LRRK2,100 to 1000 nM
